In ChEMBL document CHEMBL1201862, “PubChem BioAssay data set” (2004):
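Step 1: Grow cells in 96-well plates. Step 2: Expose to compound for 48 hours at 5 concentrations. Step 3: Interpolate endpoints linearly; if unreached, use highest concentration. The concentration for 50% growth inhibition is given as GI50.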 Active and inactive are the calls of the source. Rule as the data show it: active = GI50 up to about 1.1 µM and inactive = higher.

Experiments:
Experiment in all cases: DTP human tumour cell line panel, 48 h
SF-539 = tested on: SF-539
HL-60 = tested on: HL-60
Malme-3M = tested on: Malme-3M
SF-295 = tested on: SF-295
RPMI-8226 = tested on: RPMI-8226
COLO 205 = tested on: COLO 205
NCI-H522 = tested on: NCI-H522
OVCAR-8 = tested on: OVCAR-8
SW-620 = tested on: SW-620
SK-MEL-5 = tested on: SK-MEL-5
SN12C = tested on: SN12C
KM12 = tested on: KM12
U-251 = tested on: U-251
HOP-62 = tested on: HOP-62
M14 = tested on: M14
TK-10 = tested on: TK-10
NCI-H226 = tested on: NCI-H226
SR = tested on: SR
CAKI-1 = tested on: CAKI-1

Measured: GI50

C#CN1C(=O)c2c(c(-c3ccccc3)c(-c3ccc(Oc4ccc(-c5c(-c6ccccc6)c6c(c(-c7ccccc7)c5-c5ccccc5)C(=O)N(C#C)C6=O)cc4)cc3)c(-c3ccccc3)c2-c2ccccc2)C1=O
inactive: SF-539 > 100 µM | HL-60 > 100 µM | Malme-3M > 100 µM | SF-295 > 100 µM | RPMI-8226 > 100 µM | COLO 205 > 100 µM | NCI-H522 > 100 µM | OVCAR-8 > 100 µM | SW-620 > 100 µM | SK-MEL-5 > 100 µM | SN12C 30.1 µM | KM12 > 100 µM | U-251 > 100 µM | HOP-62 > 100 µM | M14 80.7 µM | TK-10 > 100 µM

O=C(COc1ccc2c(=O)cc(-c3ccc(Cl)cc3)oc2c1)N1CCN(c2ccccc2)CC1
inactive: SF-539 > 100 µM | NCI-H226 > 100 µM | HL-60 59.3 µM | Malme-3M > 100 µM | SR > 100 µM | SF-295 > 100 µM | RPMI-8226 > 100 µM | CAKI-1 > 100 µM | COLO 205 4.37 µM | OVCAR-8 > 100 µM | SW-620 > 100 µM | SK-MEL-5 > 100 µM | SN12C 65.9 µM | KM12 89.9 µM | U-251 > 100 µM | HOP-62 > 100 µM | M14 > 100 µM | TK-10 > 100 µM

COc1ccc(-c2nc3c(nc2-c2ccc(OC)cc2)C(N)=NS(=O)(=O)N3)cc1
inactive: SF-539 > 100 µM | NCI-H226 > 100 µM | HL-60 > 100 µM | Malme-3M > 100 µM | SF-295 > 100 µM | RPMI-8226 > 100 µM | CAKI-1 > 100 µM | COLO 205 > 100 µM | NCI-H522 > 100 µM | OVCAR-8 > 100 µM | SW-620 > 100 µM | SK-MEL-5 > 100 µM | SN12C > 100 µM | KM12 > 100 µM | U-251 > 100 µM | HOP-62 > 100 µM | TK-10 > 100 µM

CCOc1ccc(N2C(=O)/C(=C/c3ccc(N(CCC#N)CCC#N)cc3)N=C2c2cc([N+](=O)[O-])ccc2Cl)cc1
inactive: SF-539 27.2 µM | NCI-H226 42.4 µM | HL-60 47.6 µM | SF-295 24.2 µM | RPMI-8226 15.7 µM | CAKI-1 14.8 µM | COLO 205 17.6 µM | OVCAR-8 35.3 µM | SW-620 23 µM | SK-MEL-5 18.6 µM | SN12C 63 µM | KM12 18.9 µM | U-251 51.5 µM | HOP-62 73.1 µM | M14 24.1 µM | TK-10 58.1 µM

COC(=O)C1=C(C)N(NC(N)=O)C2(N)N(NC(N)=O)C(C)=C(C(=O)OC)C12C(=O)OC (configuration not stated)
inactive: SF-539 > 100 µM | NCI-H226 > 100 µM | HL-60 > 100 µM | Malme-3M > 100 µM | SF-295 > 10 µM | RPMI-8226 > 100 µM | CAKI-1 > 100 µM | COLO 205 > 100 µM | NCI-H522 > 100 µM | OVCAR-8 > 100 µM | SW-620 > 100 µM | SN12C > 100 µM | KM12 > 10 µM | U-251 > 100 µM | HOP-62 > 100 µM | M14 > 100 µM | TK-10 > 100 µM

O=C(/C=C/c1ccc(OCCCCCCCCCCOc2ccc(/C=C/C(=O)c3ccc(Cl)cc3)cc2)cc1)c1ccc(Cl)cc1
inactive: SF-539 > 100 µM | NCI-H226 > 100 µM | HL-60 > 100 µM | Malme-3M > 100 µM | SF-295 > 100 µM | RPMI-8226 > 100 µM | CAKI-1 > 100 µM | COLO 205 > 100 µM | NCI-H522 > 100 µM | OVCAR-8 > 100 µM | SW-620 > 100 µM | SK-MEL-5 > 100 µM | SN12C > 100 µM | KM12 > 100 µM | U-251 > 100 µM | HOP-62 > 100 µM | TK-10 > 100 µM

O=C1c2ccccc2C(=O)c2nc(-c3ccccc3)c(-c3ccccc3)nc21
inactive: SF-539 24.7 µM | NCI-H226 22.5 µM | Malme-3M 1.22 µM | SF-295 11 µM | RPMI-8226 > 100 µM | CAKI-1 > 100 µM | COLO 205 17.7 µM | NCI-H522 14.4 µM | OVCAR-8 > 100 µM | SW-620 2.7 µM | SK-MEL-5 1.49 µM | KM12 > 100 µM | U-251 > 67 µM | HOP-62 33 µM | M14 5.69 µM | TK-10 > 100 µM

O=C(CC(=O)c1cccc2ccccc12)C(=O)NC1C2CC3CC(C2)CC1C3 (configuration not stated)
inactive: SF-539 > 100 µM | NCI-H226 > 100 µM | HL-60 77.1 µM | Malme-3M > 100 µM | SF-295 > 100 µM | RPMI-8226 > 100 µM | CAKI-1 > 100 µM | COLO 205 > 100 µM | NCI-H522 > 100 µM | OVCAR-8 > 100 µM | SW-620 > 100 µM | SK-MEL-5 > 100 µM | SN12C > 100 µM | KM12 > 100 µM | U-251 > 100 µM | HOP-62 > 100 µM | M14 > 100 µM | TK-10 > 100 µM

C1=CC(N(c2ccccc2)C2C=CCCC2)CCC1 (configuration not stated)
inactive: SF-539 > 100 µM | HL-60 69.8 µM | SF-295 85.7 µM | RPMI-8226 32.4 µM | CAKI-1 > 100 µM | COLO 205 > 100 µM | NCI-H522 67 µM | OVCAR-8 > 100 µM | SW-620 > 100 µM | SK-MEL-5 84.1 µM | SN12C > 100 µM | U-251 > 100 µM | M14 > 100 µM | TK-10 > 100 µM

Clc1cccc(-c2nnc(-c3nn(-c4ccccc4)c4nc5ccccc5nc34)o2)c1
inactive: SF-539 > 100 µM | NCI-H226 > 100 µM | HL-60 > 100 µM | Malme-3M > 100 µM | SF-295 > 100 µM | RPMI-8226 > 100 µM | CAKI-1 > 100 µM | COLO 205 > 100 µM | NCI-H522 > 100 µM | OVCAR-8 > 100 µM | SW-620 > 100 µM | SK-MEL-5 77.4 µM | SN12C > 100 µM | KM12 > 100 µM | U-251 > 100 µM | HOP-62 > 100 µM | M14 > 100 µM | TK-10 > 100 µM

O=C1Nc2ccccc2C12CCNC2Cc1ccccc1 (configuration not stated)
inactive: SF-539 > 100 µM | HL-60 > 100 µM | Malme-3M > 100 µM | SF-295 > 100 µM | RPMI-8226 > 100 µM | CAKI-1 > 100 µM | COLO 205 > 100 µM | OVCAR-8 > 100 µM | SW-620 > 100 µM | SK-MEL-5 > 100 µM | KM12 > 100 µM | U-251 > 100 µM | HOP-62 > 100 µM | M14 > 100 µM | TK-10 > 100 µM
